Laboratory results as given in patent US20150265661A1, “PREBIOTIC EFFECT OF SIALYLLACTOSE” (Trustees of Boston College, priority 2012, published 2015).

What was measured:
[1] = tested on: Bifidobacteria sp. (ten strains of Table 2); assay: Growth (OD 600 nm) and pH of bacterial strains in ZMB1 with oligosaccharide as sole carbon source; type: cell-based, Bifidobacterium longum, Bifidobacterium infantis; settings: for utilization as a primary carbon source by ten different Bifidobacteria: concentrations indicated in FIGS. 4 and 5; for numbers of bifidobacteria: in vitro fermentation, vs control; for prebiotic effects on Bifidobacteria strains: sialyllactose alone, FIG. 5
Escherichia coli W3110 = assay: as above; type: cell-based; settings: 48 h, FIG. 4
[2] = tested on: Clostridium perfringens ATCC 13124; type: cell-based; settings: 48 h, sole carbon source, FIG. 4

Row | Molecule | utilization as a primary carbon source by ten different Bifidobacteria [1] | numbers of bifidobacteria [1] | prebiotic effects on Bifidobacteria strains [1] | growth of the Bifidobacteria sp. ([1]; 48 h, sole carbon source (2'-FL 2 g/L, 3-FL 2 g/L, LDFT 1 g/L), vs control without substrate) | pH in the culture of Bifidobacteria ([1]; 48 h, sole carbon source, vs control without substrate) | growth of E. coli (Escherichia coli W3110) | pH in the culture of E. coli (Escherichia coli W3110) | growth of C. perfringens [2] | pH in the culture of C. perfringens [2]
1 | CC(=O)N[C@H]1[C@H]([C@H](O)[C@H](O)CO)O[C@@](O[C@H]2[C@@H](O)[C@@H](CO)O[C@@H](O[C@H]3[C@H](O)[C@@H](O)C(O)O[C@@H]3CO)[C@@H]2O)(C(=O)O)C[C@@H]1O (some centres unmarked) [3′-SL, 3′-sialyllactose] | could utilize | significantly higher | showed prebiotic effects on some Bifidobacteria strains | – | – | – | – | – | –
2 | CC(=O)N[C@H]1[C@H]([C@H](O)[C@H](O)CO)O[C@@](OC[C@H]2O[C@@H](O[C@H]3[C@H](O)[C@@H](O)[C@H](O)O[C@@H]3CO)[C@H](O)[C@@H](O)[C@H]2O)(C(=O)O)C[C@@H]1O [6′-SL, 6′-sialyllactose] | could utilize | significantly higher | showed prebiotic effects on some Bifidobacteria strains | – | – | – | – | – | –
3 | lactodifucotetraose [LDFT] | could utilize | significantly higher | – | significantly increase | decrease the pH | no significant increase | no significant increase on its growth and decrease in pH | no significant increase | no significant increase on its growth and decrease in pH
